Data set [1] in a line: Hepatic intrinsic clearance following incubation in human liver microsomes. It counts as in vitro ADME. The settings on record: 0.5 μM test compound, NADPH, 0-30 min, scaled to g liver. The method, then: Hepatic Extraction Ratio from Hepatic Intrinsic Clearance Following Incubation in Human Liver Microsomes
The general procedure consists of an automated incubation system and LC-MS/MS analysis with human liver microsomes. Human liver microsomes are thawed rapidly in a waterbath at 37° C. and kept on ice until use. The human liver microsomes are diluted with 50 mM potassium phosphate buffer pH 7.4 to a protein concentration of 0.55 mg/mL. Test compounds and positive controls (Verapamil and Dextromethorphan, positive controls for CYP3A4 for CYP2D6 isoforms, respectively) are dissolved in methanol (or other appropriate solvent, if necessary) in order to obtain a 5 mM solution which is further diluted to the concentration of 50 μM. The stock solutions are prepared immediately before the test.
5 μL of 50 μM test compounds and controls are added to 445 μL-of the 0.55 mg/mL microsomes solution and the incubation mixture are pre-warmed at 37° C. for 5 minutes. The incubation reactions are initiated by adding 50 μL of pre-warmed NADPH regenerating system to the incubation mixtures. 50 μL-aliquots will be taken from the incubation mixtures at: 0, 3, 6, 9, 15 and 30 minutes and the reactions are stopped by adding 100 μL of ACN containing Rolipram, used as generic Internal Standard (IS). Samples are then diluted with 120 μL of Milli-Q water and centrifuged at 3000 rpm for 10 minutes, prior the LC-MS/MS analysis.
The integrated peak areas for test compounds at the selected time points are divided by the respective peak areas of the IS and the percent of parent remaining is calculated by normalizing the peak area ratio of parent to IS at 0 min. Observed rate constant (kobs) for parent degradation is calculated by determining the slope of the line of the graph of the natural log of percentage parent remaining versus time of incubation. From the rate of depletion (min−1) and volume of the incubation (mL), clearance is estimated. This is scaled for the protein in the incubation relative to that in the intact liver, for all species (mL/min/g liver).
Values for the Human in vitro Clint are expressed as mL/min/g liver.
Assuming a liver weight of 25.7 g/kg and a liver blood flow of 20.7 mL/min/kg, the hepatic extraction ratio, Eh, can be derived from the Human in vitro Clint:
E.g. a Human in vitro Clint of 2.4 mL/min/g liver corresponds to a hepatic extraction ratio of 75%.
Some compounds of the present invention were tested according to example 101.
A general note: Liver microsomes are vesicles of endoplasmic reticulum, rich in cytochrome P450 enzymes.

Data set [2] deals with T1, NK1 Receptor (Homo sapiens, UniProt P25103).
T1 construct: Measurement of NK1 Receptor Mediated Intracellular [Ca^2+]; Mobilization in U251 MG Cells Using FLIPR; endogenous in cells; host or cells: U251 MG cells
Briefly: NK1 receptor mediated intracellular [Ca2+] mobilization in U251 MG cells using FLIPR. The data set is classed as cell-based. The settings on record: antagonism of Substance P (EC80), Fluo-4, read-out: NK1R mediated intracellular [Ca^2+] mobilization IC 50. The method, then:
Measurement of NK1 Receptor Mediated Intracellular [Ca^2+] Mobilization in U251 MG Cells Using FLIPR
U251 MG cells were seeded into black walled clear-bottom 384-well plates (Greiner Bio-One GmbH, Frickenhausen, Germany) at a density of 15,000 cells/well in 50 μl culture medium and cultured overnight in a 37° C. 5% CO2 incubator. The cells were then loaded with the calcium sensitive dye Fluo-4 (Invitrogen) at 1 μM in buffer, containing 0.04% Pluronic F-127 (Sigma-Aldrich), and 2.5 mM probenecid (Sigma-Aldrich) for 60 min in a humidified atmosphere of 5% CO2. Thereafter, cells were washed three times in washing buffer containing 20 mM HEPES and 2.5 mM probenecid pH 7.3. Serial dilutions of test compounds in assay buffer containing 2% dimethyl sulfoxide (final concentration in the cell plate is 0.5% DMSO) and/or agonist were then automatically pipetted into each test well, and the peak fluorescence intensity was recorded (lex, 488 nm; lem, 540 nm) by the FLIPR instrument (Molecular Devices) for approximately 5 min. To measure antagonist potency, cell plates were first incubated with the test compound and intracellular fluorescence recorded for 5 minutes to check a potential agonist effect of the test compound. Cell plates were quickly removed from the FLIPR instrument and incubated for additional 10 minutes at 37° C. before being moved back to the FLIPR instrument for Substance P (EC80) addition. The response was measured as the peak relative fluorescence change after agonist addition.
Compound relative %-effect was normalized to the maximal response evoked by 100 nM Aprepitant in presence of the EC80 of Substance P and the antagonist potency determined by non-linear regression using GraphPad Prism (version 5) or the four-parameter logistic model in XLfit (IDBS, Guilford, UK) for Microsoft Excel (Microsoft, Redmond, Wash.). The IC50 value is defined as the molar concentration of a test compound that produces a response midway between the fitted top and the fitted bottom. pIC50=−log IC50
Formula is listed as follows:
Fit (% Effect calculated)=(A+((B−A)/(1+((C/X)̂D)))) • A: bottom value • B: top value • C: test compound concentration • X: Relative IC50 • D: Hill slope coefficient
Ref: Sullivan E, Tucker E M, and Dale I L. Measurement of [Ca^2+] using the Fluorometric Imaging Plate Reader (FLIPR). Methods Mol Biol 114:125-133, 1999.
Compounds of the present invention were tested according to example 100.

T1 sequence (P25103 whole entry): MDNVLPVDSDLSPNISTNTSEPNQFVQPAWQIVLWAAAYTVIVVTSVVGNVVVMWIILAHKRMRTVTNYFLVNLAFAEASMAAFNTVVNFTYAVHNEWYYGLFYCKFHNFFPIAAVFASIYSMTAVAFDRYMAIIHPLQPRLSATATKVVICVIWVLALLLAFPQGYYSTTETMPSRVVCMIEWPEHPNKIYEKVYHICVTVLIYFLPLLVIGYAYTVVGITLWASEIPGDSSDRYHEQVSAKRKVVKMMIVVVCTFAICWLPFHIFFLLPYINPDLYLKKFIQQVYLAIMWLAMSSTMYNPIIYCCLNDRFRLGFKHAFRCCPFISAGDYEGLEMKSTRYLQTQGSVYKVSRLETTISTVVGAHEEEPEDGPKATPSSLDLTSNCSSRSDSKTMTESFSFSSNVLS

Consider `COc1ccc([C@H]2[C@@H]3CC(CCO)(CCO)C(=O)N3CCN2C(=O)N(C)[C@H](C)c2cc(C(F)(F)F)cc(C(F)(F)F)c2)c(C)c1` [Compound 29, (1S,8aS)—N—((R)-1-(3,5-bis(trifluoromethyl)phenyl)ethyl)-7,7-bis(2-hydroxyethyl)-1-(4-methoxy-2-methylphenyl)-N-methyl-6-oxohexahydropyrrolo[1,2-a]pyrazine-2(1H)-carboxamide], for which, in data set [1], the “Human in vitro Clint” value was above 200 mL/min/g. Further, the IC50 in data set [2] was 0.114 nM.

For `Cc1cc(O)ccc1[C@H]1[C@@H]2CC(CCO)(CCO)C(=O)N2CCN1C(=O)N(C)[C@H](C)c1cc(C(F)(F)F)cc(C(F)(F)F)c1` [Compound 30, (1S,8aS)—N—((R)-1-(3,5-bis(trifluoromethyl)phenyl)ethyl)-1-(4-hydroxy-2-methylphenyl)-7,7-bis(2-hydroxyethyl)-N-methyl-6-oxo-hexahydropyrrolo[1,2-a]pyrazine-2(1H)-carboxamide], the “Human in vitro Clint” value in data set [1] is 18 mL/min/g. For the same compound, in data set [2], the IC50 worked out at 0.116 nM.

Take `CCc1cc([C@@H](C)N(C)C(=O)N2CCN3C(=O)C(CCO)(CCO)C[C@H]3[C@@H]2c2ccc(O)cc2C)cc(C(F)(F)F)c1` [Compound 31, (1S,8aS)—N—((R)-1-(3-ethyl-5-(trifluoromethyl)phenyl)ethyl)-1-(4-hydroxy-2-methylphenyl)-7,7-bis(2-hydroxyethyl)-N-methyl-6-oxohexahydropyrrolo[1,2-a]pyrazine-2(1H)-carboxamide]: in data set [1], the “Human in vitro Clint” value came out at 61 mL/min/g. Further, in data set [2], the IC50 came to 0.059 nM.

Regarding `CCc1cc([C@@H](C)N(C)C(=O)N2CCN3C(=O)CC[C@H]3[C@@H]2c2ccccc2C)nc(C(F)(F)F)c1` [Compound 32, (1S,8aS)—N—((R)-1-(4-ethyl-6-(trifluoromethyl)pyridin-2-yl)ethyl)-N-methyl-6-oxo-1-o-tolylhexahydropyrrolo[1,2-a]pyrazine-2(1H)-carboxamide], the “Human in vitro Clint” value in data set [1] is above 200 mL/min/g. Besides, in data set [2], the IC50 came out at 0.66 nM.

With `Cc1cc(CN(C)C(=O)N2CCN3C(=O)C(CCO)(CCO)C[C@H]3[C@@H]2c2ccccc2C)nc(C(F)(F)F)c1` [Compound 33, (1S,8aS)-7,7-bis(2-hydroxyethyl)-N-methyl-N-((4-methyl-6-(trifluoromethyl)pyridin-2-yl)methyl)-6-oxo-1-o-tolylhexahydropyrrolo[1,2-a]pyrazine-2(1H)-carboxamide], the “Human in vitro Clint” value in data set [1] was above 200 mL/min/g. Moreover, the IC50 in data set [2] was found to be 0.139 nM.

With `Cc1ccc([C@H]2[C@@H]3CC(CCO)(CCO)C(=O)N3CCN2C(=O)N(C)[C@H](C)c2cc(Cl)cc(C(F)(F)F)c2)c(C)c1` [Compound 34, (1S,8aS)—N—((R)-1-(3-chloro-5-(trifluoromethyl)phenyl)ethyl)-1-(2,4-dimethylphenyl)-7,7-bis(2-hydroxyethyl)-N-methyl-6-oxo-hexahydropyrrolo[1,2-a]pyrazine-2(1H)-carboxamide], the “Human in vitro Clint” value in data set [1] was above 200 mL/min/g. The IC50 in data set [2] came to 0.054 nM.

Turning to `Cc1ccc([C@H]2[C@@H]3CC(CCO)(CCO)C(=O)N3CCN2C(=O)N(C)[C@H](C)c2cc(C(C)C)cc(C(F)(F)F)c2)c(C)c1` [Compound 35, (1S,8aS)-1-(2,4-dimethylphenyl)-7,7-bis(2-hydroxyethyl)-N—((R)-1-(3-isopropyl-5-(trifluoromethyl)phenyl)ethyl)-N-methyl-6-oxohexahydropyrrolo[1,2-a]pyrazine-2(1H)-carboxamide], the “Human in vitro Clint” value in data set [1] is above 200 mL/min/g. In data set [2], the IC50 stood at 0.141 nM.

On to `COc1ccccc1[C@H]1[C@@H]2CC(CCO)(CCO)C(=O)N2CCN1C(=O)N(C)[C@H](C)c1cc(C(F)(F)F)cc(C(F)(F)F)c1` [Compound 36, (1S,8aS)—N—((R)-1-(3,5-bis(trifluoromethyl)phenyl)ethyl)-7,7-bis(2-hydroxyethyl)-1-(2-methoxyphenyl)-N-methyl-6-oxo-hexahydropyrrolo[1,2-a]pyrazine-2(1H)-carboxamide], for which the “Human in vitro Clint” value in data set [1] was determined as 147 mL/min/g. In addition, in data set [2], the IC50 turned out to be 0.811 nM.

For the compound `Cc1ccc(C)c([C@H]2[C@@H]3CC(CCO)(CCO)C(=O)N3CCN2C(=O)N(C)[C@H](C)c2cc(C(F)(F)F)cc(C(F)(F)F)c2)c1` [Compound 37, (1S,8aS)—N—((R)-1-(3,5-bis(trifluoromethyl)phenyl)ethyl)-1-(2,5-dimethylphenyl)-7,7-bis(2-hydroxyethyl)-N-methyl-6-oxo-hexahydropyrrolo[1,2-a]pyrazine-2(1H)-carboxamide], in data set [1], the “Human in vitro Clint” value is 30 mL/min/g. Besides, in data set [2], the IC50 was 0.08 nM.

On to `Cc1ccc(C)c([C@H]2[C@@H]3CC(CCO)(CCO)C(=O)N3CCN2C(=O)N(C)[C@H](C)c2cc(C(C)C)cc(C(F)(F)F)c2)c1` [Compound 38, (1S,8aS)-1-(2,5-dimethylphenyl)-7,7-bis(2-hydroxyethyl)-N—((R)-1-(3-isopropyl-5-(trifluoromethyl)phenyl)ethyl)-N-methyl-6-oxohexahydropyrrolo[1,2-a]pyrazine-2(1H)-carboxamide], for which the “Human in vitro Clint” value in data set [1] is 157 mL/min/g. In data set [2], the IC50 amounted to 0.118 nM.

Take `Cc1cccc([C@H]2[C@@H]3CC(CCO)(CCO)C(=O)N3CCN2C(=O)N(C)[C@H](C)c2cc(C(F)(F)F)cc(C(F)(F)F)c2)c1C` [Compound 39, (1S,8aS)—N—((R)-1-(3,5-bis(trifluoromethyl)phenyl)ethyl)-1-(2,3-dimethylphenyl)-7,7-bis(2-hydroxyethyl)-N-methyl-6-oxohexahydropyrrolo[1,2-a]pyrazine-2(1H)-carboxamide]: the “Human in vitro Clint” value in data set [1] is above 200 mL/min/g. Further, the IC50 in data set [2] was 0.119 nM.

Consider `Cc1cccc([C@H]2[C@@H]3CCC(=O)N3CCN2C(=O)N(C)[C@H](C)c2cc(C(F)(F)F)cc(C(F)(F)F)c2)c1C` [Compound 40, (1S,8aS)—N—((R)-1-(3,5-bis(trifluoromethyl)phenyl)ethyl)-1-(2,3-dimethylphenyl)-N-methyl-6-oxo-hexahydropyrrolo[1,2-a]pyrazine-2(1H)-carboxamide], for which the “Human in vitro Clint” value in data set [1] is above 200 mL/min/g. For the same compound, in data set [2], the IC50 came out at 0.197 nM.

Take `CCc1cc([C@@H](C)N(C)C(=O)N2CCN3C(=O)CC[C@H]3[C@@H]2c2cccc(C)c2C)cc(C(F)(F)F)c1` [Compound 41, (1S,8aS)-1-(2,3-dimethylphenyl)-N—((R)-1-(3-ethyl-5-(trifluoromethyl)phenyl)ethyl)-N-methyl-6-oxo-hexahydropyrrolo[1,2-a]pyrazine-2(1H)-carboxamide]: in data set [1], the “Human in vitro Clint” value is above 200 mL/min/g. The IC50 in data set [2] came to 0.111 nM.

Consider `Cc1cccc([C@H]2[C@@H]3CCC(=O)N3CCN2C(=O)N(C)[C@H](C)c2cc(C(C)C)cc(C(F)(F)F)c2)c1C` [Compound 42], for which, in data set [1], the “Human in vitro Clint” value was above 200 mL/min/g. The IC50 in data set [2] worked out at 0.306 nM.

The values are drawn from US20160207930A1 (LEO PHARMA A/S, priority 2013, published 2016).
